“Also recorded” adds a separate entry of the source.
Columns and labels:
[1] = MTT cytotoxicity assay, JAR; type: cell-based; settings: human, JAR cells, triplicates, read-out: Cytotoxicity against cancer cells (IC50), JAR
Method: (§1) JAR, K562, and HCT116 cells were seeded in 96-well plates (3500 cells/well) and incubated for 8 h. The medium with different concentrations of compounds (100, 33.3, 11.1, 3.7, 1.2, and 0.4 μM) was added to the 96-well plates. Data were normalized to the medium with 0.1% DMSO. After incubation for 72 h, MTT solution (5 mg/mL, 20 μL) was added per well in a dark environment and incubated for 4 h. After the medium was discarded, DMSO (150 μL) was added per well, and the absorbance was measured at 492 nm by a plate reader (TECAN Spark).

YTHDF2 = target: T1, YTHDF2 (Homo sapiens, UniProt Q9Y5A9); assay: nanoDSF thermal shift assay; type: binding; settings: for ΔTm at 5 µM: 5 μM compound; for ΔTm at 10 µM: 10 μM compound
T1 construct: A YTHDF2 YTH domain construct (residues 383–553) was subcloned to a pOPIN plasmid; made in house; host or cells: Escherichia coli BL21(DE3)
T1 sequence (Q9Y5A9 383-553): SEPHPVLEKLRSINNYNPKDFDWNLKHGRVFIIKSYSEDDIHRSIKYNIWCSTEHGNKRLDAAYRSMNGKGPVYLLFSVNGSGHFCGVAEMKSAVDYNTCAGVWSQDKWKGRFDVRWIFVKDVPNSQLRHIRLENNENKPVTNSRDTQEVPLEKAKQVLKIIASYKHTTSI
Method: NanoDSF was measured on a NanoTemper instrument (Prometheus NT.48). YTHDF2 protein was used at a concentration of 5 μM and incubated with 50, 25, 10, and 5 μM compound in buffer (100 mM KPi, pH 7.0, 250 mM NaCl, 10% Glycerol) for 50 min, in which 0.1% DMSO was used as the reference. The heat rate was set to 1 °C per minute, measured in a range between 20 and 90 °C.

YTHDC1 = target: T2, YTHDC1 (Homo sapiens, UniProt Q96MU7); assay: EMSA with YTHDC1; type: binding; settings: m6A RNA 20 nM
T2 construct: YTHDC1 (residues 345–509); made in house; host or cells: Escherichia coli BL21(DE3); plasmid from the Zhou lab (Boston College)
Method: (§2) Compounds with different concentrations (3.1–100 μM) were incubated with 250 nM YTH-domain and 20 nM FAM-17mer-RNA in a buffer containing 20 mM HEPES, pH 8.2, 50 mM NaCl, 0.05% Triton X-100, and 5% v/v glycerol for 20 min at 4 °C. The samples were subjected to 12% native polyacrylamide gel and run at 120 V for 90 min at 4 °C using 0.5× TBE buffer. Gel imaging was performed in ChemiDoc MP (Bio-Rad), and Cy2/Alexa488 fluorescence was detected with a 1-min exposure time. Quantification of the gel image was performed by ImageJ.
Figure S14. The EMSA of YTHDC1 binding to the m6A RNA substrate. (A) The YTHDC1–RNA
complex formation in EMSA using m6A RNA (20 nM) and different concentrations of YTHDC1.
(§3) (1 picture or pasted object on this page, not shown here)

[2] = MTT cytotoxicity assay, K562; type: cell-based; settings: human, K562 cells, triplicates, read-out: Cytotoxicity against cancer cells (IC50), K562
Method: as §1

K562 and JAR cells = assay: Dot blot assay of cellular RNA m6A methylation level; type: cell-based, human; settings: different concentrations, highest 25 μM
Method: JAR and K562 cells were seeded in six-well plates (1.0 × 10^6 cells/well) and incubated overnight. The cells were scraped off directly and then washed with PBS. Total RNA was then extracted with the Aurum Total RNA Mini Kit. The RNA concentration was determined by NanoDrop 2000c (Thermo) and then heated for 5 min at 95 °C. Primary antibody Rb pAb to N^6-methyladenosine (m^6A) (Abcam, ab286164, 1:1000) and secondary antibody HRP-conjugated AffiniPure Goat Anti-Rabbit IgG(H+L) (SA00001–2, 1:8000) were used. Chemiluminescent detection was performed using a ChemiDoc MP (Bio-Rad).

[3] = target: T3, YTHDF2 (residues 383–553) (Homo sapiens, UniProt Q9Y5A9); assay: Fluorescence polarization (FP) assay, YTHDF2–m6A RNA interaction; type: binding; settings: for inhibition at 100 µM / inhibition at 100 μM in the FP assay: 100 μM compound, YTHDF2 (residues 383–553, 20 nM), FAM-labeled m6A RNA probe 5 nM, average ± SD; for inhibitory IC50 in FP (in words): YTHDF2–m6A RNA interaction, Figure S2
T3 construct: A YTHDF2 YTH domain construct (residues 383–553) was subcloned to a pOPIN plasmid; made in house; host or cells: Escherichia coli BL21(DE3)
T3 sequence (Q9Y5A9 383-553): T1 sequence (Q9Y5A9 383-553)
Method: The FP assay was performed in 384-well black plates (Corning no. 4514) with a total reaction volume of 15 μL. The final concentrations of protein (YTHDF2) and RNA were […], respectively, in a buffer containing 20 mM HEPES/KOH pH 7.5, 50 mM NaCl, 0.005% Tween 20, and 1 mM GSH (DTT). Compounds were incubated with protein, added FAM-m^6A RNA probe ([…](m6)ACUGUG) (purchased from IDT), and incubated at 4 °C for 30 min. The fluorescence polarization was measured using a plate reader (TECAN Spark) under an excitation wavelength of 485 nm and an emission wavelength of 535 nm with a bandwidth of 20 nm. […] The data were determined using GraphPad Prism 9.

YTHDC2 = target: T4, YTHDC2 (Homo sapiens, UniProt Q9H6S0); assay: EMSA with YTHDC2; type: binding; settings: m6A RNA 20 nM, 10 µM YTHDC2
T4 construct: YTHDC2 (residues 1285–1424); made in house; host or cells: Escherichia coli BL21(DE3); plasmid from the Zhou lab (Boston College)
T4 sequence (Q9H6S0 1285-1424): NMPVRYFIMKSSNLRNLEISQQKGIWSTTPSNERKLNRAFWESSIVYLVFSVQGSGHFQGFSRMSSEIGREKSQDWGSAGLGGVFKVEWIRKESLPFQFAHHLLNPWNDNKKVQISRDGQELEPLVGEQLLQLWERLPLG
Method: as §2
Figure S15. EMSA using m6A RNA and YTHDC2 protein of varied concentrations as indicated.
(A) 20 nM of m6A RNA was used and 10 µM of YTHDC2 was chosen for EMSA. (B) CK-61, CK-
as §3

K562 = assay: CCK-8 proliferation assay, K562; type: cell-based; settings: Homo sapiens, CCK-8 kit assay, triplicates, 72 h, read-out: Anti-proliferation activity against cancer cells (IC50), K562
Method: The JAR, K562, HCT116, and MOLM13 cells were seeded in 96-well plates (3000 cells/well). After being cultured overnight, compounds were added together with the DMSO treatment (0.1%) as a control. After 72 h, CCK-8 solution (Vazyme, A311) was added, and the cells were incubated at 37 °C for 4 h. The absorbance was measured at 450 nm using a plate reader (TECAN Spark).

| Structure (SMILES) | IC50 at 72 h [1] [µM] | ΔTm at 5 µM (YTHDF2) [°C] | ΔTm at 10 µM (YTHDF2) [°C] | ΔTm at 25 µM (YTHDF2; 25 μM compound) [°C] | inhibition of m6A RNA binding to YTHDC1 in EMSA (in words) (YTHDC1) | IC50 at 72 h [2] [µM] | effect on global m6A RNA abundance (dot blot, in words) (K562 and JAR cells) | inhibition at 100 µM [3] [%] | inhibition at 100 μM in the FP assay [3] [%] | inhibitory IC50 in FP (in words) [3] | inhibition of m6A RNA binding to YTHDC2 in EMSA (in words) (YTHDC2) | IC50 (K562) [µM] |
| --- | --- | --- | --- | --- | --- | --- | --- | --- | --- | --- | --- | --- |
| O=C(O)c1ccc(-n2cc(C(=O)c3cc(Cl)cc(Cl)c3O)cn2)cc1 [CK-61] | > 50 | 0.94 ± 0.58 | 1.56 ± 0.41 | 3.21 | did not show detectable inhibitory activity; also recorded: no activity | > 50 | slight increase | > 70 | 81.4 ± 10.7 | low double-digit micromolar | did not show detectable inhibitory activity; also recorded: no activity | > 50 |
| O=C(O)c1ccc(-n2cc(C(=O)c3c(O)ccc4ccccc34)cn2)cc1 [CK-75] | 47.5 |  |  |  | did not show detectable inhibitory activity; also recorded: did not show detectable inhibition | 29.7 | did not significantly impact |  |  |  | did not show detectable inhibitory activity; also recorded: did not show detectable inhibition |  |
| Cc1cc(O)c(C(=O)c2cnn(-c3ccc(C(=O)O)cc3)c2)cc1Cl [CK-79] | 31.6 | 0.96 ± 0.08 | 1.39 ± 0.37 |  | did not show detectable inhibitory activity; also recorded: did not show detectable inhibition | 29.4 ± 16.7 | did not significantly impact | > 70 | 70.3 ± 5.1 | low double-digit micromolar | did not show detectable inhibitory activity; also recorded: did not show detectable inhibition | 28.1 ± 1.6 |
